Experimental data: US20230183193A1, “4-DIFLUOROMETHYL BENZOYL AMIDES WITH HERBICIDAL ACTION” (BAYER CROPSCIENCE AKTIENGESELLSCHAFT, priority 2017, published 2023)

Key:
Format in all cases: in vivo
Abutilon theophrasti [1] = experiment: Pre-emergence herbicidal action, ABUTH; details: for Herbicidal efficacy against ABUTH: comparison with WO 2011035874, Table G
Procedure, shortened: (§1)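 Percent herbicidal activity rated by eye 3 weeks after pre-emergence soil-surface application, compared with untreated pots. Seeds sat under sandy loam; sprays carried 0.2% wetting agent.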

Alopecurus myosuroides = experiment: Pre-emergence herbicidal action, ALOMY; details: comparison with WO 2011035874, Table G
Procedure, shortened: as §1

Amaranthus retroflexus [2] = experiment: Pre-emergence herbicidal action, AMARE; details: for Herbicidal efficacy against AMARE: comparison with WO 2011035874, Table H
Procedure, shortened: as §1

Avena fatua = experiment: Pre-emergence herbicidal action, AVEFA; details: comparison with WO 2011035874, Table G
Procedure, shortened: as §1

Cyperus serotinus = experiment: Pre-emergence herbicidal action, CYPES; details: for Herbicidal efficacy against CYPES: comparison with WO 2011035874, Table G
Procedure, shortened: as §1

Matricaria inodora [3] = experiment: Pre-emergence herbicidal action, MATIN; details: dosage 320 g/ha, scored visually after 3 weeks vs untreated controls
Procedure, shortened: as §1

Polygonum convolvulus = experiment: Pre-emergence herbicidal action, POLCO; details: comparison with WO 2011035874, Table H
Procedure, shortened: as §1

Setaria viridis = experiment: Pre-emergence herbicidal action, SETVI; details: for Herbicidal efficacy against SETVI: comparison with WO 2011035874, Table G
Procedure, shortened: as §1

Stellaria media [4] = experiment: Pre-emergence herbicidal action, STEME; details: for Herbicidal efficacy against STEME: comparison with WO 2011035874, Table H
Procedure, shortened: as §1

Veronica persica [5] = experiment: Pre-emergence herbicidal action, VERPE; details: comparison with WO 2011035874, Table H
Excerpt: (§2) 1. Pre-Emergence Herbicidal Action Against Harmful Plants Seeds of monocotyledonous and dicotyledonous weed plants and crop plants are laid out in sandy loam soil in wood-fiber pots and covered with soil. The compounds of the invention, formulated in the form of wettable powders (WP) or as emulsion concentrates (EC), are then applied to the surface of the covering soil in the form of an aqueous suspension or emulsion at a water application rate equating to […], with addition of 0.2% wetting agent. After the treatment, the pots are placed in a greenhouse and kept under good growth conditions for the trial plants. The damage to the test plants is scored visually after a test period of 3 weeks by comparison with untreated controls (herbicidal activity in percent (%): 100% activity=the plants have died, 0% activity=like control plants).
(§3) For comparison, the herbicidal activity of numerous compounds according to the invention was tested with the structurally closest compounds known from the documents WO 2011/035874, WO 2012/028579 and WO 2012/126932, by the pre- and post-emergence method.

Viola tricolor [6] = experiment: Pre-emergence herbicidal action, VIOTR; details: for Herbicidal efficacy against VIOTR: comparison with WO 2011035874, Table H
Procedure, shortened: as §1

Abutilon theophrasti [7] = experiment: Post-emergence herbicidal action, ABUTH; details: 80 g/ha
Procedure, shortened: (§4)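 Post-emergence spray; one-leaf stage (2–3 wk after sowing), sandy loam, greenhouse. WP/EC in water, 600 to […], +0.2% wetting agent. Visual % damage vs untreated at ~3 wk; 100% = plants dead.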

Amaranthus retroflexus [8] = experiment: Post-emergence herbicidal action, AMARE; details: 80 g/ha
Procedure, shortened: as §4

Matricaria inodora [9] = experiment: Post-emergence herbicidal action, MATIN; details: 80 g/ha
Protocol: (§5) Seeds of monocotyledonous and dicotyledonous weed and crop plants are laid out in sandy loam soil in wood-fiber pots, covered with soil and cultivated in a greenhouse under good growth conditions. 2 to 3 weeks after sowing, the test plants are treated at the one-leaf stage. The compounds of the invention, formulated in the form of wettable powders (WP) or as emulsion concentrates (EC), are then sprayed onto the green parts of the plants in the form of an aqueous suspension or emulsion at a water application rate equating to […], with addition of 0.2% wetting agent. After the test plants have been left to stand in the greenhouse under optimal growth conditions for about 3 weeks, the action of the preparations is assessed visually in comparison to untreated controls (herbicidal action in percent (%): 100% activity=the plants have died, 0% activity=like control plants). […] At the same time, inventive compounds leave Gramineae crops such as barley, wheat, rye, millet/sorghum, corn or rice virtually undamaged when applied post-emergence, even at high active compound dosages. In addition, some substances are also harmless to dicotyledonous crops such as soya, cotton, oilseed rape, sugar beet or potatoes. Some of the compounds according to the invention have high selectivity and are therefore suitable for controlling unwanted vegetation in agricultural crops by the post-emergence method. The data of Tables C and D below illustrate, in an exemplary manner, the […] herbicidal action of the compounds according to the invention, the herbicidal activity being stated in percent.
as §3

Pharbitis purpureum = experiment: Post-emergence herbicidal action, PHBPU; details: 80 g/ha
Procedure, shortened: as §4

Stellaria media [10] = experiment: Post-emergence herbicidal action, STEME; details: 80 g/ha
Procedure, shortened: as §4

Veronica persica [11] = experiment: Post-emergence herbicidal action, VERPE; details: 80 g/ha, comparison with WO 2011035874, Table E
Protocol: as §5, §3

Viola tricolor [12] = experiment: Post-emergence herbicidal action, VIOTR; details: 80 g/ha
Procedure, shortened: as §4

ECHCG = experiment: Pre-emergence herbicidal action, ECHCG; details: comparison with WO 2011035874, Table G
Excerpt: as §2

[13] = dosage 320 g/ha, scored visually after 3 weeks vs untreated controls
[14] = comparison with WO 2011035874, Table E
[15] = comparison with WO2011035874, Table F

CSc1c(C(F)F)ccc(C(=O)Nc2nonc2C)c1C [Example 5-1]
90%: Herbicidal efficacy against STEME (Stellaria media [4]; 320 g/ha) | Herbicidal activity STEME (Stellaria media [4]; [13]) | Herbicidal activity PHBPU (Pharbitis purpureum; Table D) | Herbicidal efficacy against PHBPU (Pharbitis purpureum; [14]) | Herbicidal efficacy against PHBPU (Pharbitis purpureum; [15])
50%: Herbicidal efficacy against CYPES (Cyperus serotinus; 80 g/ha)
60%: Herbicidal efficacy against AVEFA (Avena fatua; 320 g/ha)
40%: Herbicidal efficacy against ALOMY (Alopecurus myosuroides; 320 g/ha) | Herbicidal efficacy against MATIN (Matricaria inodora [9]; [14]) | Herbicidal efficacy against MATIN (Matricaria inodora [9]; [15])
100%: Herbicidal efficacy against ABUTH (Abutilon theophrasti [1]; 80 g/ha) | Herbicidal efficacy against ABUTH (Abutilon theophrasti [1]; 320 g/ha) | herbicidal activity ABUTH (Abutilon theophrasti [1]; [13]) | Herbicidal efficacy against AMARE (Amaranthus retroflexus [2]; 80 g/ha) | Herbicidal efficacy against AMARE (Amaranthus retroflexus [2]; 320 g/ha) | herbicidal activity AMARE (Amaranthus retroflexus [2]; [13]) | herbicidal activity MATIN (Matricaria inodora [3]) | Herbicidal efficacy against POLCO (Polygonum convolvulus; 320 g/ha) | Herbicidal efficacy against SETVI (Setaria viridis; 320 g/ha) | herbicidal activity SETVI (Setaria viridis; [13]) | Herbicidal efficacy against VERPE (Veronica persica [5]; 80 g/ha) | Herbicidal efficacy against VERPE (Veronica persica [5]; 320 g/ha) | Herbicidal efficacy against VIOTR (Viola tricolor [6]; 80 g/ha) | Herbicidal efficacy against VIOTR (Viola tricolor [6]; 320 g/ha) | herbicidal activity VIOTR (Viola tricolor [6]; [13]) | herbicidal activity ABUTH (Abutilon theophrasti [7]; Table D) | Herbicidal efficacy against ABUTH (Abutilon theophrasti [7]; [14]) | Herbicidal efficacy against ABUTH (Abutilon theophrasti [7]; [15]) | Herbicidal activity STEME (Stellaria media [10]; Table D) | Herbicidal efficacy against STEME (Stellaria media [10]; [14]) | Herbicidal efficacy against STEME (Stellaria media [10]; [15]) | Herbicidal efficacy against VERPE (Veronica persica [11]) | herbicidal activity VIOTR (Viola tricolor [12]; Table D) | Herbicidal efficacy against VIOTR (Viola tricolor [12]; [14]) | Herbicidal efficacy against VIOTR (Viola tricolor [12]; [15]) | Herbicidal efficacy against ECHCG (ECHCG; 320 g/ha)
30%: Herbicidal efficacy against ALOMY (Alopecurus myosuroides; 80 g/ha) | Herbicidal efficacy against AVEFA (Avena fatua; 80 g/ha)
80%: Herbicidal efficacy against CYPES (Cyperus serotinus; 320 g/ha) | herbicidal activity CYPES (Cyperus serotinus; [13]) | Herbicidal efficacy against POLCO (Polygonum convolvulus; 80 g/ha) | Herbicidal efficacy against SETVI (Setaria viridis; 80 g/ha) | Herbicidal efficacy against STEME (Stellaria media [4]; 80 g/ha) | herbicidal activity AMARE (Amaranthus retroflexus [8]; Table D) | Herbicidal efficacy against AMARE (Amaranthus retroflexus [8]; [14]) | Herbicidal efficacy against ECHCG (ECHCG; 80 g/ha)
